Test results as given in patent US20250154144A1 (CHILDREN'S HOSPITAL MEDICAL CENTER, priority 2021, published 2025).
Where two headings read alike, the source gives them in different places.

How the values were obtained:
IRAK4 = biological target: T1, IRAK4 (Homo sapiens, UniProt Q9NWZ3); assay: DiscoverX KINOMEscan competition binding, IRAK4; parameters: purchased RBC (Reaction Biology) HotSpot assay
T1 sequence (Q9NWZ3 1-460): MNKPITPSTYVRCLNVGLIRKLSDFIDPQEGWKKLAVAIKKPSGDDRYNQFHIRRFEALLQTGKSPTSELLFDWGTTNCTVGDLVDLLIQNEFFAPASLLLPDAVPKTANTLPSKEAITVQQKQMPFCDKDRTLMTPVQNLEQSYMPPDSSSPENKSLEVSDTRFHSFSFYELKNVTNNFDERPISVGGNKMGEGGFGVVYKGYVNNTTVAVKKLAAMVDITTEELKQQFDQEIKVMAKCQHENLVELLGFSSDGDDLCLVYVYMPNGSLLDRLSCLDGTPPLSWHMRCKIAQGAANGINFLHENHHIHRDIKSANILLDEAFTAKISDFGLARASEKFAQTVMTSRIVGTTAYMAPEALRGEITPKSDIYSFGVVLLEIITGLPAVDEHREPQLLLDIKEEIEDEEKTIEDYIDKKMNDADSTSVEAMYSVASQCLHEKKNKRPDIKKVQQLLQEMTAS

THP1 cells = assay: Combination drug screening, Cell Titer Glo, 10 × 10 matrix, THP1 cells; format: cell-based
MOLM14(D835Y) cells = format: cell-based
[1] = starting conc. 100 nM, with (+)-BAY-1251152 starting conc. 1000 nM
[2] = starting conc. 100 nM, with Azacitidine (5-Azacytidine) starting conc. 20000 nM
[3] = starting conc. 100 nM, with Palbociclib starting conc. 10000 nM
[4] = starting conc. 100 nM, with Prednisolone starting conc. 10000 nM
[5] = starting conc. 100 nM, with TNO-155 starting conc. 10000 nM
[6] = starting conc. 100 nM, with Venetoclax (ABT-199) starting conc. 2000 nM
[7] = starting conc. 100 nM, with Venetoclax (ABT-199) starting conc. 20000 nM
[8] = starting conc. 20000 nM, with (+)-BAY-1251152 starting conc. 1000 nM
[9] = starting conc. 20000 nM, with Azacitidine (5-Azacytidine) starting conc. 20000 nM
[10] = starting conc. 20000 nM, with Palbociclib starting conc. 10000 nM
[11] = starting conc. 20000 nM, with Prednisolone starting conc. 10000 nM
[12] = starting conc. 20000 nM, with TNO-155 starting conc. 10000 nM
[13] = starting conc. 20000 nM, with Venetoclax (ABT-199) starting conc. 2000 nM
[14] = starting conc. 20000 nM, with Venetoclax (ABT-199) starting conc. 20000 nM

COc1cc2ncc(-c3ccnc(N[C@H]4CNC[C@@H]4F)n3)n2nc1C1CC1 [Compound 49, 4-(6-cyclopropyl-7-methoxyimidazo[1,2-b]pyridazin-3-yl)-N-((3S,4S)-4-fluoropyrrolidin-3-yl)pyrimidin-2-amine]
Kd (IRAK4): 0.56 nM

COc1cc2ncc(-c3ccnc(N[C@@H]4CCCNC4)n3)n2nc1C1CC1 [Compound 50, (R)-4-(6-cyclopropyl-7-methoxyimidazo[1,2-b]pyridazin-3-yl)-N-(piperidin-3-yl)pyrimidin-2-amine]
Excess HSA Score (THP1 cells; THP1 cells, 10 × 10, combination with (+)-BAY-1251152): −396.5
Excess HSA Score (THP1 cells; THP1 cells, 10 × 10, combination with AMG-232): 252
Excess HSA Score (THP1 cells; THP1 cells, 10 × 10, combination with AZD-5363): −475
Excess HSA Score (THP1 cells; THP1 cells, 10 × 10, combination with Eprenetapopt/APR-246): −218.2
Excess HSA Score (THP1 cells; THP1 cells, 10 × 10, combination with Ivosidenib): −149.8
Excess HSA Score (THP1 cells; THP1 cells, 10 × 10, combination with Lenalidomide): 333.7
Excess HSA Score (THP1 cells; THP1 cells, 10 × 10, combination with Palbociclib): −273.2
Excess HSA Score (THP1 cells; THP1 cells, 10 × 10, combination with Prednisolone): −429.3
Excess HSA Score (THP1 cells; THP1 cells, 10 × 10, combination with SNDX-5613): −9.013
Excess HSA Score (THP1 cells; THP1 cells, 10 × 10, combination with TNO-155): 306.2
Excess HSA Score (THP1 cells; THP1 cells, 10 × 10, combination with Trametinib): −475.4
Excess HSA Score (THP1 cells; THP1 cells, 10 × 10, combination with Ulixertinib): −358.5769
Excess HSA Score (THP1 cells; THP1 cells, 10 × 10, combination with Venetoclax (ABT-199)): −2869
Comments (THP1 cells; THP1 cells, combination with AMG-232): Antagonistic
Comments (THP1 cells; THP1 cells, combination with Venetoclax (ABT-199)): Synergistic
Comments (THP1 cells; [1]): Synergistic at both
Excess HSA Score (THP1 cells; [1]): −408.4
Comments (THP1 cells; [2]): Synergistic at both
Excess HSA Score (THP1 cells; [2]): −164.8
Comments (THP1 cells; [3]): Antagonistic over
Excess HSA Score (THP1 cells; [3]): 19.42
Comments (THP1 cells; [4]): Antagonistic at both
Excess HSA Score (THP1 cells; [4]): 76.0598
Excess HSA Score (THP1 cells; [5]): 0.06789
Comments (THP1 cells; [6]): Synergistic; Optimal
Excess HSA Score (THP1 cells; [6]): −911.4
Comments (THP1 cells; [7]): Synergistic; Optimal
Excess HSA Score (THP1 cells; [7]): −1400
Comments (THP1 cells; [8]): Synergistic at both
Excess HSA Score (THP1 cells; [8]): −293.4
Comments (THP1 cells; [9]): Synergistic at both
Excess HSA Score (THP1 cells; [9]): −347.5
Excess HSA Score (THP1 cells; [10]): −482.7
Comments (THP1 cells; [11]): Antagonistic at both
Excess HSA Score (THP1 cells; [11]): 541.6925
Comments (THP1 cells; [12]): Antagonistic
Excess HSA Score (THP1 cells; [12]): 230.5
Comments (THP1 cells; [13]): Synergistic; Optimal
Excess HSA Score (THP1 cells; [13]): −27.96
Comments (THP1 cells; [14]): Synergistic; Optimal
Excess HSA Score (THP1 cells; [14]): −1808
Excess HSA Score (MOLM14(D835Y) cells; MOLM14(D835Y) cells, 10 × 10, combination with (+)-BAY-1251152): −552.5
Excess HSA Score (MOLM14(D835Y) cells; MOLM14(D835Y) cells, 10 × 10, combination with AMG-232): −129.9
Excess HSA Score (MOLM14(D835Y) cells; MOLM14(D835Y) cells, 10 × 10, combination with AZD-5363): 12.5
Excess HSA Score (MOLM14(D835Y) cells; MOLM14(D835Y) cells, 10 × 10, combination with Eprenetapopt/APR-246): −99.03
Excess HSA Score (MOLM14(D835Y) cells; MOLM14(D835Y) cells, 10 × 10, combination with Ivosidenib): 219
Excess HSA Score (MOLM14(D835Y) cells; MOLM14(D835Y) cells, 10 × 10, combination with Lenalidomide): 555
Excess HSA Score (MOLM14(D835Y) cells; MOLM14(D835Y) cells, 10 × 10, combination with Palbociclib): −528.5
Excess HSA Score (MOLM14(D835Y) cells; MOLM14(D835Y) cells, 10 × 10, combination with Prednisolone): 196.6
Excess HSA Score (MOLM14(D835Y) cells; MOLM14(D835Y) cells, 10 × 10, combination with SNDX-5613): −229.3
Excess HSA Score (MOLM14(D835Y) cells; MOLM14(D835Y) cells, 10 × 10, combination with TNO-155): −1021
Excess HSA Score (MOLM14(D835Y) cells; MOLM14(D835Y) cells, 10 × 10, combination with Trametinib): −342.3
Excess HSA Score (MOLM14(D835Y) cells; MOLM14(D835Y) cells, 10 × 10, combination with Ulixertinib): 149.4
Excess HSA Score (MOLM14(D835Y) cells; MOLM14(D835Y) cells, 10 × 10, combination with Venetoclax (ABT-199)): −1391
Comments (MOLM14(D835Y) cells; MOLM14(D835Y) cells, combination with AZD-5363): Antagonistic
Comments (MOLM14(D835Y) cells; MOLM14(D835Y) cells, combination with Venetoclax (ABT-199)): Synergistic
Comments (MOLM14(D835Y) cells; [1]): Synergistic
Excess HSA Score (MOLM14(D835Y) cells; [1]): −317.9
Excess HSA Score (MOLM14(D835Y) cells; [2]): −579.8
Excess HSA Score (MOLM14(D835Y) cells; [3]): −1019
Excess HSA Score (MOLM14(D835Y) cells; [4]): 9.258
Comments (MOLM14(D835Y) cells; [5]): Synergistic
Excess HSA Score (MOLM14(D835Y) cells; [5]): −1043.6684
Comments (MOLM14(D835Y) cells; [6]): Synergistic;
Excess HSA Score (MOLM14(D835Y) cells; [6]): −1372
Comments (MOLM14(D835Y) cells; [7]): Synergistic;
Excess HSA Score (MOLM14(D835Y) cells; [7]): −83.83
Comments (MOLM14(D835Y) cells; [8]): Antagonistic
Excess HSA Score (MOLM14(D835Y) cells; [8]): 67.99
Excess HSA Score (MOLM14(D835Y) cells; [9]): −56.9
Excess HSA Score (MOLM14(D835Y) cells; [10]): −31.37
Excess HSA Score (MOLM14(D835Y) cells; [11]): 121.2
Comments (MOLM14(D835Y) cells; [12]): Additive
Excess HSA Score (MOLM14(D835Y) cells; [12]): −2.487
Comments (MOLM14(D835Y) cells; [13]): Synergistic;
Excess HSA Score (MOLM14(D835Y) cells; [13]): −1026
Comments (MOLM14(D835Y) cells; [14]): Synergistic;
Excess HSA Score (MOLM14(D835Y) cells; [14]): −74.01

COc1cc2ncc(-c3ccnc(N[C@H]4CNCC[C@@H]4F)n3)n2nc1C1CC1 [Compound 51, 4-(6-cyclopropyl-7-methoxyimidazo[1,2-b]pyridazin-3-yl)-N-((3S,4S)-4-fluoropiperidin-3-yl)pyrimidin-2-amine]
Kd (IRAK4): 0.57 nM
